According to article PMC6318325, “The conformational changes coupling ATP hydrolysis and translocation in a bacterial DnaB helicase” (Nature Communications, 2019):

What was measured:
HpDnaB (DnaB) [1] = biological target: T1, HpDnaB (DnaB) (Helicobacter pylori, UniProt O25916); assay: […] solid-state NMR, ATP turned over to ADP during sample preparation; assay type: biochemical; details: 5 mM MgCl2, 5 mM ATP, pH 7.5, 130 mM NaCl, 4 °C, no DNA
T1 construct: full length (488 residues), no tag stated (heparin and anion exchange purification); pACYC-duet1, E. coli BL21 Star (DE3); 13C-15N labelled for NMR; hexameric assembly, dodecamer named in anisotropy assay; nucleotide site at interface of two monomers
T1 sequence (O25916 1-488): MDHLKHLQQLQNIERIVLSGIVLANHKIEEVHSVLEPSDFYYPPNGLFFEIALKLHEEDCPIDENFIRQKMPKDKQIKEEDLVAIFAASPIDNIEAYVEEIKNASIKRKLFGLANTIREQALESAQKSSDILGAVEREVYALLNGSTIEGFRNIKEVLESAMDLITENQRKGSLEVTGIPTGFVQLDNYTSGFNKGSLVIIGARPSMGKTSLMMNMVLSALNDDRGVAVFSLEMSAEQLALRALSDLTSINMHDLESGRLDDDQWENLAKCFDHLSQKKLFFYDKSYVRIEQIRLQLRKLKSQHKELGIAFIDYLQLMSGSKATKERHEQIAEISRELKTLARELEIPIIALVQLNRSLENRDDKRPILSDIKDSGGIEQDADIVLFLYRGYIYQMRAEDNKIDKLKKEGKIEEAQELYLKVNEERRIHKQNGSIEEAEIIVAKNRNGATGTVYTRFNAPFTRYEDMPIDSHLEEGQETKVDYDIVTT

HpDnaB (DnaB) [2] = biological target: T1, HpDnaB (DnaB); assay: solid-state […] CP and […] MAS NMR of sedimented complex; details: no DNA, NMR at 278 K, nucleotide-binding domain
[3] = biological target: T2, HpDnaB replicative helicase (Helicobacter pylori, UniProt O25916 1-488); assay: fluorescence anisotropy; 0.5 mM AMP-PCP, 5 mM MgCl2; Hill fit; Supplementary Table 4 fit instead prints 47.43 +/- 2.648, h 0.7349 (column order inferred); Anisotropy: 20 mM Hepes pH 7.5, 5 mM MgCl2, 50 mM potassium acetate, 5% glycerol, 0.2 mg/ml BSA, 0.5 mM nucleotide, 1 nM DNA, 0-8 uM DnaB (dodecamer), temperature not stated; NMR: protein buffer 2.5 mM sodium phosphate pH 7.5, 130 mM NaCl, 278 K; details: protein: recombinant; chain copies: 12; label: 5'-FAM; single strand
T2 sequence: T1 sequence (O25916 1-488)

[4] = biological target: T2, HpDnaB replicative helicase; assay: fluorescence anisotropy; 0.5 mM ATP, 5 mM MgCl2; Hill fit h 0.6509; Anisotropy: 20 mM Hepes pH 7.5, 5 mM MgCl2, 50 mM potassium acetate, 5% glycerol, 0.2 mg/ml BSA, 0.5 mM nucleotide, 1 nM DNA, 0-8 uM DnaB (dodecamer), temperature not stated; NMR: protein buffer 2.5 mM sodium phosphate pH 7.5, 130 mM NaCl, 278 K; details: protein: recombinant; chain copies: 12; label: 5'-FAM; single strand
[5] = biological target: T2, HpDnaB replicative helicase; assay: fluorescence anisotropy; 0.5 mM ADP:AlF4-, 5 mM MgCl2; Hill fit h 1.160; Anisotropy: 20 mM Hepes pH 7.5, 5 mM MgCl2, 50 mM potassium acetate, 5% glycerol, 0.2 mg/ml BSA, 0.5 mM nucleotide, 1 nM DNA, 0-8 uM DnaB (dodecamer), temperature not stated; NMR: protein buffer 2.5 mM sodium phosphate pH 7.5, 130 mM NaCl, 278 K; details: protein: recombinant; chain copies: 12; label: 5'-FAM; single strand

**Q.** Which “31P solid-state NMR, ATP turned over to ADP during sample preparation” value (HpDnaB (DnaB) [1]) does the source give for `Nc1ncnc2c1ncn2[C@@H]1O[C@H](COP(=O)(O)OP(=O)(O)OP(=O)(O)O)[C@@H](O)[C@H]1O` [ATP] here?
**A.** Its value is “Addition of ATP to the apo form yields the ADP spectrum, implying that ATP is hydrolyzed”.

**Q.** For `Nc1ncnc2c1ncn2[C@@H]1O[C@H](COP(=O)(O)OP(=O)(O)O)[C@@H](O)[C@H]1O` [ADP], which “solid-state 31P CP and 13C MAS NMR of sedimented complex” value (HpDnaB (DnaB) [2]; 5 mM MgCl2, 5 mM ADP, pH 7.5, 130 mM NaCl) is on record?
**A.** Its value is “The nucleotides are thus indeed bound to the protein”.

**Q.** Which “solid-state 31P CP and 13C MAS NMR of sedimented complex” value (HpDnaB (DnaB) [2]; 5 mM MgCl2, pH 7.5, 130 mM NaCl, 15 mM nucleotide) does the source give for `Nc1ncnc2c1ncn2[C@@H]1O[C@H](COP(=O)(O)OP(=O)(O)CP(=O)(O)O)[C@@H](O)[C@H]1O` [AMP-PCP] here?
**A.** Its value is “The nucleotides are thus indeed bound to the protein”.

**Q.** Which Kd [3] does the source give for TTTTTTTTTTTTTTTTTTTT (ssDNA) [5'-FAM-(dT)20] here?
**A.** The Kd was 58 ± 14 nM.

**Q.** And the Kd [4]?
**A.** Its Kd is 14 ± 3 nM.

**Q.** And the Kd [5]?
**A.** The Kd was 0.83 ± 0.03 nM.
